Test results taken from BigSolDB 2.1.

CC(=O)Nc1ccc(OC(=O)c2ccccc2OC(C)=O)cc1
solubility (mole fraction) (in DMAc, 278.15 K): 0.058
solubility (mole fraction) (in DMAc, 283.15 K): 0.0623
solubility (mole fraction) (in DMAc, 288.15 K): 0.0687
solubility (mole fraction) (in DMAc, 293.15 K): 0.075
solubility (mole fraction) (in DMAc, 298.15 K): 0.0814
solubility (mole fraction) (in DMAc, 303.15 K): 0.0875
solubility (mole fraction) (in DMAc, 308.15 K): 0.0954
solubility (mole fraction) (in DMAc, 313.15 K): 0.103
solubility (mole fraction) (in DMAc, 318.15 K): 0.112
solubility (mole fraction) (in DMAc, 323.15 K): 0.12
solubility (mole fraction) (in DMSO, 293.15 K): 0.0385
solubility (mole fraction) (in DMSO, 298.15 K): 0.0463
solubility (mole fraction) (in DMSO, 303.15 K): 0.0544
solubility (mole fraction) (in DMSO, 308.15 K): 0.0637
solubility (mole fraction) (in DMSO, 313.15 K): 0.0743
solubility (mole fraction) (in DMSO, 318.15 K): 0.0865
solubility (mole fraction) (in DMSO, 323.15 K): 0.1
solubility (mole fraction) (in methyl acetate, 278.15 K): 0.0011
solubility (mole fraction) (in methyl acetate, 283.15 K): 0.00138
solubility (mole fraction) (in methyl acetate, 288.15 K): 0.00164
solubility (mole fraction) (in methyl acetate, 293.15 K): 0.00199
solubility (mole fraction) (in methyl acetate, 298.15 K): 0.00238
solubility (mole fraction) (in methyl acetate, 303.15 K): 0.00289
solubility (mole fraction) (in methyl acetate, 308.15 K): 0.00344
solubility (mole fraction) (in methyl acetate, 313.15 K): 0.00412
solubility (mole fraction) (in methyl acetate, 318.15 K): 0.00496
solubility (mole fraction) (in methyl acetate, 323.15 K): 0.00602
solubility (mole fraction) (in n-butyl acetate, 278.15 K): 0.000482
solubility (mole fraction) (in n-butyl acetate, 283.15 K): 0.000609
solubility (mole fraction) (in n-butyl acetate, 288.15 K): 0.000727
solubility (mole fraction) (in n-butyl acetate, 293.15 K): 0.000899
solubility (mole fraction) (in n-butyl acetate, 298.15 K): 0.00106
solubility (mole fraction) (in n-butyl acetate, 303.15 K): 0.0013
solubility (mole fraction) (in n-butyl acetate, 308.15 K): 0.0016
solubility (mole fraction) (in n-butyl acetate, 313.15 K): 0.00189
solubility (mole fraction) (in n-butyl acetate, 318.15 K): 0.00229
solubility (mole fraction) (in n-butyl acetate, 323.15 K): 0.00272
solubility (mole fraction) (in n-pentyl acetate, 278.15 K): 0.000309
solubility (mole fraction) (in n-pentyl acetate, 283.15 K): 0.000392
solubility (mole fraction) (in n-pentyl acetate, 288.15 K): 0.000509
solubility (mole fraction) (in n-pentyl acetate, 293.15 K): 0.000638
solubility (mole fraction) (in n-pentyl acetate, 298.15 K): 0.000794
solubility (mole fraction) (in n-pentyl acetate, 303.15 K): 0.000983
solubility (mole fraction) (in n-pentyl acetate, 308.15 K): 0.00121
solubility (mole fraction) (in n-pentyl acetate, 313.15 K): 0.00149
solubility (mole fraction) (in n-pentyl acetate, 318.15 K): 0.0018
solubility (mole fraction) (in n-pentyl acetate, 323.15 K): 0.00217
solubility (mole fraction) (in n-propyl acetate, 278.15 K): 0.00053
solubility (mole fraction) (in n-propyl acetate, 283.15 K): 0.000653
solubility (mole fraction) (in n-propyl acetate, 288.15 K): 0.000831
solubility (mole fraction) (in n-propyl acetate, 293.15 K): 0.00104
solubility (mole fraction) (in n-propyl acetate, 298.15 K): 0.00127
solubility (mole fraction) (in n-propyl acetate, 303.15 K): 0.00154
solubility (mole fraction) (in n-propyl acetate, 308.15 K): 0.00186
solubility (mole fraction) (in n-propyl acetate, 313.15 K): 0.00221
solubility (mole fraction) (in n-propyl acetate, 318.15 K): 0.00275
solubility (mole fraction) (in n-propyl acetate, 323.15 K): 0.00324
